# Results as given in EP0018019A1, “Antimicrobial water-soluble compound which contains a rare earth metal cation, its application in oral compositions and method for controlling microorganisms therewith” (priority 1979, dated 1980).
# Read-outs that look alike come from different tables or passages of the source.
# Legend:
# E. coli [1] = assay type: cell-based; settings: for Log Survivors/ml: approximately 10^7 E. coli/ml, 10 min. at 37°C; for effectiveness as component of the antimicrobial compositions: other polyvalent metals in place of the rare earth, tested in the foregoing manner
# Staphylococcus = settings: cited from earlier work
# molds = settings: cited from earlier work
# [2] = Stain test on pellicle-coated plastic artificial molars (coffee/tea); settings: for promotion of stains: demonstrated by the stain test; for Stain Grade: 0-8 scale (0 no stain, 8 continuous dark brown stain)
# Method: Plastic artificial molars were mounted in the caps of disposable plastic vials using dental cement. A thin, organic pellicle was developed on the teeth by exposure for about 17 hours to pooled human saliva which has been centrifuged for 2 minutes at 500X gravity to remove food and similar debris. The coated teeth were serially exposed for 5 minutes to a solution of the test material, a distilled water rinse, for 5 minutes to a solution of instant coffee and tea (20 grams of commercial instant coffee and 2 grams of commercial instant tea in 1 liter of distilled water), a distilled water rinse, the test solution for 5 minutes, a distilled water rinse, the coffee/tea solution for 5 minutes, and a final distilled water rinse. The teeth were then graded for degree of staining on a 0-8 scale (where 0 was no stain and 8 was continuous dark brown stain) by comparison with a photographic standard.
# [3] = Antimicrobial activity of rare earth/surfactant combinations; assay type: cell-based; settings: in combination with a rare earth
# Method: (§1) The data are from standard tests for measuring Minimum Bactericidal Concentrations (using a 10-minute contact with the test agent at 37°C; representing at least 3 log unit reduction in viable cell count).
# [4] = Water solubility / precipitation from solution; assay type: physicochemical; settings: in combination with a rare earth
# Description: Moreover, the compounds herein or their rare earth metal components precipitate from solution at pH's above about 8. See: Moeller and Kremers, Chem. Rev. 37:114 (1945). Moreover, highly acid (below about pH 4) solutions of the surfactants herein have antimicrobial properties in their own right. Of course, compositions intended for oral use should have a pH above about 4 to avoid damage to dental enamel. With certain species of microorganisms, especially with Pityrosporum ovale which is the causative microorganism for dandruff, the compositions herein are optimally active in the pH range of 4.0-4.5.
# The present invention specifically encompasses the more water-soluble, antimicrobially-active rare earth/alkyl benzene sulfonate compositions.
# E. coli [5] = experiment: Minimum Bactericidal Concentration test; assay type: cell-based; settings: 10-minute contact at 37°C
# Method: as §1
# S. aureus = experiment: Minimum Bactericidal Concentration test; assay type: cell-based; settings: 10-minute contact at 37°C
# Method: as §1
# Staph. aureus ATCC 6538 = experiment: Minimum Bactericidal Concentration of LaLAS; assay type: cell-based; settings: Gram-positive
# Method: as §1
# Strep. faecalis = experiment: Minimum Bactericidal Concentration of LaLAS; assay type: cell-based; settings: Gram-positive
# Method: as §1
# E. coli ATCC 11775 = experiment: Minimum Bactericidal Concentration of LaLAS; assay type: cell-based; settings: Gram-negative
# Method: as §1
# Salmonella typhimurium = experiment: Minimum Bactericidal Concentration of LaLAS; assay type: cell-based; settings: Gram-negative
# Method: as §1
# [6] = test system: Kleb. pneumoniae ATCC 4352; experiment: Minimum Bactericidal Concentration of LaLAS; assay type: cell-based; settings: Gram-negative
# Method: as §1
# Bacillus subtilis = experiment: Minimum Bactericidal Concentration of LaLAS; assay type: cell-based; settings: Gram-positive
# Method: as §1
# [7] = test system: Staph. epidermidis ATCC 14990; experiment: Minimum Bactericidal Concentration of LaLAS; assay type: cell-based; settings: Gram-positive
# Method: as §1
# [8] = test system: Micrococcus luteus ATCC 4698; experiment: Minimum Bactericidal Concentration of LaLAS; assay type: cell-based; settings: Gram-positive
# Method: as §1
# Proteus vulgaris = experiment: Minimum Bactericidal Concentration of LaLAS; assay type: cell-based; settings: Gram-negative
# Method: as §1
# [9] = test system: Ps. aeruginosa ATCC 15442; experiment: Minimum Bactericidal Concentration of LaLAS; assay type: cell-based; settings: Gram-negative
# Method: as §1
# dental plaque = experiment: In vitro growth of dental plaque on extracted human teeth in growth chambers; assay type: cell-based; settings: plaque-inhibiting solutions for one minute each morning and afternoon, four days; compared with water-treated controls
# Description: The efficacy of the antimicrobial composition LaLAS was compared with the known anti-plaque agent chlorhexidine digluconate for the prevention of dental plaque, as follows: • Lanthanum 4-(1'-methylnonyl)benzenesulfonate (LaLAS) was used in this test to reduce the in vitro growth of dental plaque on teeth. This was done using a system of glass growth chambers containing clean, extracted, sound human teeth mounted in stainless steel brackets. After sterilization in an autoclave, the growth chambers were inoculated with homogenized human plaque scrapings and serially treated with Trypticase® soy broth, sucrose, artificial saliva, and solutions of plaque-inhibiting materials for four days: The plaque-inhibiting solutions were introduced for one minute each morning and afternoon. After this treatment, the teeth were withdrawn from the growth chambers, stained with an alcoholic solution of basic fuchsin to disclose any plaque that had formed and, after randomization, graded for percent plaque coverage by three trained judges. Percent plaque reduction was calculated by comparison with water-treated controls. [formula]
# [10] = Rare Earth Cation 0.01 mM + 2-C10LAS 0.03 mM
# [11] = Rare Earth Cation 0.05 mM + 2-C10LAS 0.15 mM
# [12] = Rare Earth Cation 0.1 mM + 2-C10LAS 0.3 mM
# [13] = Rare Earth Cation 0.1 mM alone, 2-C10LAS 0 mM
# [14] = 3 molecular equivalents of Na surfactant to 1 molecular equivalent of LaCl3
# [15] = inorganic lanthanum salt alone, at least 3 log unit reduction in viable cell count
compound,measurement,setting,value
[Cl][Pr]([Cl])[Cl] [PrCl3],Log Survivors/ml,E. coli [1]; [10],0
same,Log Survivors/ml,E. coli [1]; [11],0
same,Log Survivors/ml,E. coli [1]; [12],0
same,Log Survivors/ml,E. coli [1]; [13],3
[Mg] [magnesium],effectiveness as component of the antimicrobial compositions,E. coli [1],ineffective
O=[N+]([O-])[O-].O=[N+]([O-])[O-].O=[N+]([O-])[O-].[Ce+3] [cerium nitrate],concentration that inhibits Staphylococcus,Staphylococcus,1000 ppm
same,concentration that inhibits molds,molds,1000 ppm
[H]/N=C(\N/C(=N/[H])NCCCCCCNC(=N)NC(=N)Nc1ccc(Cl)cc1)Nc1ccc(Cl)cc1 [chlorhexidine digluconate],promotion of stains,[2],undesirably promotes stains
CCCCCCCCCCCCc1ccc(S(=O)(=O)O)cc1 [n-C12LAS],antimicrobial activity,[3],rather poor
same,water solubility,[4],rather water-insoluble
[Cl][Dy]([Cl])[Cl] [DyCl3],Log Survivors/ml,E. coli [1]; [10],0
same,Log Survivors/ml,E. coli [1]; [11],0
same,Log Survivors/ml,E. coli [1]; [12],0
same,Log Survivors/ml,E. coli [1]; [13],3
[Cl][Yb]([Cl])[Cl] [YbCl3],Log Survivors/ml,E. coli [1]; [10],0
same,Log Survivors/ml,E. coli [1]; [11],0
same,Log Survivors/ml,E. coli [1]; [12],0
same,Log Survivors/ml,E. coli [1]; [13],2
"CCCCCCCCC(C)c1ccc(S(=O)(=O)O)cc1 (stereo not shown) [Compound 2-C10LAS, 4-(l'-methylnonyl)benzenesulfonate]",Minimum Bactericidal Concentration (ppm) E. coli Na salt + LaCl3,E. coli [5]; [14],32 ppm
same,MBC,"E. coli [5]; Escherichia coli, 10 min, surfactant as Na salt alone, read-out: Minimum Bactericidal Concentration (ppm) E. coli as Na salt",> 2000 µg/mL
same,Minimum Bactericidal Concentration (ppm) S. aureus Na salt + LaCl3,S. aureus; [14],32 ppm
same,MBC,"S. aureus; Staphylococcus aureus, 10 min, surfactant as Na salt alone, read-out: Minimum Bactericidal Concentration (ppm) S. aureus as Na salt",2000 µg/mL
same,Log Survivors/ml,"E. coli [1]; Rare Earth Cation 0 mM, 2-C10LAS 0.3 mM alone",6
[Ca] [calcium],effectiveness as component of the antimicrobial compositions,E. coli [1],ineffective
CCCCCCCCCCCCCCCC[n+]1ccccc1 [Cetylpyridinium chloride],Stain Grade,[2]; 2000 ppm test solution,2.7
[Cl][La]([Cl])[Cl] [LaCl3],Log Survivors/ml,E. coli [1]; [10],0
same,Log Survivors/ml,E. coli [1]; [11],0
same,Log Survivors/ml,E. coli [1]; [12],0
same,Log Survivors/ml,E. coli [1]; [13],5
[H]/N=C(\N/C(=N/[H])NCCCCCCNC(=N)NC(=N)Nc1ccc(Cl)cc1)Nc1ccc(Cl)cc1 [Chlorhexidine],Stain Grade,[2]; 2000 ppm test solution,3.2
"O.O.O.O.O.O.[Cl-].[Cl-].[Cl-].[La+3] [LaCl3·6H2O, lanthanum chloride hexahydrate]",Minimum Bactericidal Concentration,E. coli [5]; [15],>3500 ppm
same,Minimum Bactericidal Concentration,S. aureus; [15],>3500 ppm
[Cl][Nd]([Cl])[Cl] [NdCl3],Log Survivors/ml,E. coli [1]; [10],1
same,Log Survivors/ml,E. coli [1]; [11],0
same,Log Survivors/ml,E. coli [1]; [12],0
same,Log Survivors/ml,E. coli [1]; [13],3
aluminum,effectiveness as component of the antimicrobial compositions,E. coli [1],ineffective
[Fe] [iron],effectiveness as component of the antimicrobial compositions,E. coli [1],ineffective
lanthanum 4-(l'-methylnonyl)benzenesulfonate [LaLAS],Minimum Bactericidal Conc. of LaLAS,Staph. aureus ATCC 6538,32 ppm
same,Minimum Bactericidal Conc. of LaLAS,Strep. faecalis,32 ppm
same,Minimum Bactericidal Conc. of LaLAS,E. coli ATCC 11775,32 ppm
same,Minimum Bactericidal Conc. of LaLAS,Salmonella typhimurium,125 ppm
same,Minimum Bactericidal Conc. of LaLAS,[6],125 ppm
same,Minimum Bactericidal Conc. of LaLAS,Bacillus subtilis,500 ppm
same,Minimum Bactericidal Conc. of LaLAS,[7],32 ppm
same,Minimum Bactericidal Conc. of LaLAS,[8],125 ppm
same,Minimum Bactericidal Conc. of LaLAS,Proteus vulgaris,32 ppm
same,Minimum Bactericidal Conc. of LaLAS,[9],16 ppm
same,anti-plaque efficacy,dental plaque,equivalent to chlorhexidine digluconate
same,Stain Grade,[2]; 2000 ppm in 20% EtOH,0
same,Stain Grade,[2]; 2000 ppm test solution,0.1
same,promotion of stains,[2],does not
